Reference: ChEMBL document CHEMBL3124816, “Preparation and optimization of new 4-(2-(indolin-1-yl)-2-oxoethyl)-2-morpholinothiazole-5-carboxylic acid and amide derivatives as potent and selective PI3Kβ inhibitors” (Bioorg Med Chem Lett, 2014)

What was measured:
[1] = target: T1, Phosphatidylinositol 4,5-bisphosphate 3-kinase catalytic subunit beta isoform (Homo sapiens, UniProt P42338); experiment: Inhibition of human PI3Kbeta after 15 mins
[2] = target: T2, Phosphatidylinositol 4,5-bisphosphate 3-kinase catalytic subunit delta isoform (Homo sapiens, UniProt O00329); experiment: Inhibition of human PI3Kdelta after 15 mins
T2 sequence (O00329 whole entry): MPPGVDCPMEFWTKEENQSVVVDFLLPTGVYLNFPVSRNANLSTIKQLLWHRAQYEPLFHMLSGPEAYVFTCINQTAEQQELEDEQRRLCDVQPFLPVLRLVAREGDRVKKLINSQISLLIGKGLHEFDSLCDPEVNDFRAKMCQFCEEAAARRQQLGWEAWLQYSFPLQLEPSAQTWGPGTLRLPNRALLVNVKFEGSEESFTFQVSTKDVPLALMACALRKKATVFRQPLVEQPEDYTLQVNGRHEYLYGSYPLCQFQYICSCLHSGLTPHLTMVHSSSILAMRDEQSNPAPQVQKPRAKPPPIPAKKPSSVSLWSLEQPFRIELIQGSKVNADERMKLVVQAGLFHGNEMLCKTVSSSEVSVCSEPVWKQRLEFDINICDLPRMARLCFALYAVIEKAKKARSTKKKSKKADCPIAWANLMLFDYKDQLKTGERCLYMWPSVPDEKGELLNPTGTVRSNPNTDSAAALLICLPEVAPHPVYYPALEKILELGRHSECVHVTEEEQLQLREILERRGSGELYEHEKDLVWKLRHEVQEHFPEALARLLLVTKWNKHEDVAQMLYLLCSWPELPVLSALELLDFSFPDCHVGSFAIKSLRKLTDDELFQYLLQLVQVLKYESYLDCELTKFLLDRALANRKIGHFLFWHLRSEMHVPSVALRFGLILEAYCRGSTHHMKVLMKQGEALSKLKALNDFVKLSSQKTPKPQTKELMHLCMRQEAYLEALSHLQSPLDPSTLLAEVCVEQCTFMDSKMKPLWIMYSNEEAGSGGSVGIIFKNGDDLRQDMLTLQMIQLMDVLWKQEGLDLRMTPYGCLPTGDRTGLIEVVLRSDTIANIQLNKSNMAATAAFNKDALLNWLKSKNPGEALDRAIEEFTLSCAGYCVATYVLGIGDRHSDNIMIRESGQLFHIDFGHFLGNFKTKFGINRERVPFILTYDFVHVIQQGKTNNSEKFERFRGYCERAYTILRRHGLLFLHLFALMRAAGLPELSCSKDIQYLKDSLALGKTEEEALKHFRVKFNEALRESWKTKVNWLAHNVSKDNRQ

[3] = target: Phosphatidylinositol 4,5-bisphosphate 3-kinase catalytic subunit gamma isoform (Homo sapiens, UniProt P48736); experiment: Inhibition of human PI3Kgamma after 15 mins
Chain of Phosphatidylinositol 4,5-bisphosphate 3-kinase catalytic subunit gamma isoform (P48736 whole entry, canonical isoform): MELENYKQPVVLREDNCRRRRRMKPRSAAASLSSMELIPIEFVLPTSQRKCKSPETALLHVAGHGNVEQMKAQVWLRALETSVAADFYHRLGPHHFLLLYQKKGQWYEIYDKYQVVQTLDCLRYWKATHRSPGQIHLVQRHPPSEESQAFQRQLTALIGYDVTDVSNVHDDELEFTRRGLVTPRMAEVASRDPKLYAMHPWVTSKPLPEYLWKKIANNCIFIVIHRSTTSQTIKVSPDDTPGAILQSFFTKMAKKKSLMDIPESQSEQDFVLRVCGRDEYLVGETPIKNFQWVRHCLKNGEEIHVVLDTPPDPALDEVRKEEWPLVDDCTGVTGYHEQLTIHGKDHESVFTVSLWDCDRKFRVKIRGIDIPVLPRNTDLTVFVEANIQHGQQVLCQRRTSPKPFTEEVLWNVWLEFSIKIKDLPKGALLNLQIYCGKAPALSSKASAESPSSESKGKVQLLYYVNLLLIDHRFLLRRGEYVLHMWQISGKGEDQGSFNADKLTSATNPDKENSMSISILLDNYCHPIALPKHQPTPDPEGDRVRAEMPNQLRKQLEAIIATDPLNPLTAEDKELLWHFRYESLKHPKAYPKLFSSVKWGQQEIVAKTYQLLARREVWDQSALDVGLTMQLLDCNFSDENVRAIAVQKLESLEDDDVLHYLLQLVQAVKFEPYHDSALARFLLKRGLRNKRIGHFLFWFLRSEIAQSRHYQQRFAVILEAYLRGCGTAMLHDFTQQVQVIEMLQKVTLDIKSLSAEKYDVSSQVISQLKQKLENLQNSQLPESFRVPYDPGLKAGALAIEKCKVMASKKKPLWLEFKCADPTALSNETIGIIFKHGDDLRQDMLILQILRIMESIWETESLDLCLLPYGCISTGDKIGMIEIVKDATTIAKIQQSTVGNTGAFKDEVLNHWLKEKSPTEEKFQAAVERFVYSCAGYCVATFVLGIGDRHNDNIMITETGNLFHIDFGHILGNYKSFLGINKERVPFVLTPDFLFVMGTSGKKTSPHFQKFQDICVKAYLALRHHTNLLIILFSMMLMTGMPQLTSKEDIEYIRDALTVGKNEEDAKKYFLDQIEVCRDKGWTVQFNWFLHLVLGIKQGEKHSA

[4] = Plasma concentration in SCID mouse harboring human PTEN-deficient PC3 cells at 150 mg/kg, po after 7 hrs; format: ADME, organism-based, PC-3; parameters: dose 150 mg/kg, route oral
[5] = Terminal elimination half life in Sprague-Dawley rat at 3 mg/kg, iv; format: ADME, organism-based; parameters: dose 3 mg/kg, route intravenous; conditions: in vivo, read-out: beta t1/2 (converted)
[6] = Apparent permeability of the compound in human Caco2 cells; format: ADME, cell-based; conditions: Caco-2
[7] = Plasma concentration in SCID mouse harboring human PTEN-deficient PC3 cells at 150 mg/kg, po after 16 hrs; format: ADME, organism-based, PC-3; parameters: dose 150 mg/kg, route oral
[8] = Clearance in Sprague-Dawley rat at 3 mg/kg, iv; format: ADME, organism-based; parameters: dose 3 mg/kg, route intravenous; conditions: in vivo
[9] = Drug metabolism in rat liver microsomes assessed as compound lability; format: ADME; conditions: read-out: Drug metabolism
[10] = Terminal elimination half life in Sprague-Dawley rat at 10 mg/kg, po; format: ADME, organism-based; parameters: dose 10 mg/kg, route oral; conditions: in vivo, read-out: beta t1/2 (converted)
[11] = Oral bioavailability in Sprague-Dawley rat at 10 mg/kg; format: ADME, organism-based; conditions: in vivo
[12] = Plasma concentration in SCID mouse harboring human PTEN-deficient PC3 cells at 150 mg/kg, po after 1 hr; format: ADME, organism-based, PC-3; parameters: dose 150 mg/kg, route oral
[13] = target: T1, Phosphatidylinositol 4,5-bisphosphate 3-kinase catalytic subunit beta isoform; experiment: Inhibition of PI3Kbeta in human PTEN-deficient PC3 cells assessed as Akt phosphorylation at S473; format: cell-based, PC-3
[14] = Drug metabolism in mouse liver microsomes assessed as compound lability; format: ADME, Microsome; conditions: microsomes
[15] = target: Phosphatidylinositol 4,5-bisphosphate 3-kinase catalytic subunit alpha isoform (Homo sapiens, UniProt P42336); experiment: Inhibition of human PI3Kalpha after 15 mins
Chain of Phosphatidylinositol 4,5-bisphosphate 3-kinase catalytic subunit alpha isoform (P42336 whole entry, canonical isoform): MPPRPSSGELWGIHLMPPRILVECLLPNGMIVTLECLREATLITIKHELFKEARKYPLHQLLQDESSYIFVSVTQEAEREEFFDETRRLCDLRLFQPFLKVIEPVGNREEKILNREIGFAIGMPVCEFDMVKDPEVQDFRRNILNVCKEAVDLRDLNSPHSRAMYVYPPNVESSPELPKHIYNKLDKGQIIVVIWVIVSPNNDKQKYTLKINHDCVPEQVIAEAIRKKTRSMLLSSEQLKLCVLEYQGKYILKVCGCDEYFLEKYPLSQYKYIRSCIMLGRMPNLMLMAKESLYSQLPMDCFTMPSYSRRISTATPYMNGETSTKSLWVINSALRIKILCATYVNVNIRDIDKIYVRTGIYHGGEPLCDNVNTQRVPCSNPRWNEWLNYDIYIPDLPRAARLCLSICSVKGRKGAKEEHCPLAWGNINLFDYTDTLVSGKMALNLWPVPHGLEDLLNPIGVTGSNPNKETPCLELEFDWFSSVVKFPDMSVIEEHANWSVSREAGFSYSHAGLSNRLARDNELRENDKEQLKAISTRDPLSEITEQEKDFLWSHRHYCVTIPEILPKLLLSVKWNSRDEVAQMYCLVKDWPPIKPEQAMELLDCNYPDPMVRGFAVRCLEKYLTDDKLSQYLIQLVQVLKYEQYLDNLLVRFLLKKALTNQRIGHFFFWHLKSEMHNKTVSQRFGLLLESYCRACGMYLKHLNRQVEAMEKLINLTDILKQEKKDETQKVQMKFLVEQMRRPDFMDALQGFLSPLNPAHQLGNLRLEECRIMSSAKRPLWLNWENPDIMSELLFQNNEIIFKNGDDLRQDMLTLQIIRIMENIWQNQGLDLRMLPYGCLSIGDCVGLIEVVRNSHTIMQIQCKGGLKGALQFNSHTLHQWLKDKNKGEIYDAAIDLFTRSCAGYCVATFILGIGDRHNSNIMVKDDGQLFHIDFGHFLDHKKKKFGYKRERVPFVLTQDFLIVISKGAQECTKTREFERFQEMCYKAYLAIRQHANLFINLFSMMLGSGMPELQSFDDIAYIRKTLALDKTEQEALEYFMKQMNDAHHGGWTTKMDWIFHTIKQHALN

[16] = Thermodynamic solubility of the compound in 50 mM Phosphate buffer at pH 7.4 after 16 hrs by HPLC analysis; format: physicochemical; conditions: buffer, pH 7.4, 16 h; 16 h
[17] = Tmax in Sprague-Dawley rat at 10 mg/kg, po; format: ADME, organism-based; parameters: dose 10 mg/kg, route oral; conditions: in vivo
[18] = Plasma protein binding in mouse; format: ADME, organism-based; conditions: read-out: PPB (converted)
[19] = Cmax in Sprague-Dawley rat at 10 mg/kg, po; format: ADME, organism-based; parameters: dose 10 mg/kg, route oral; conditions: in vivo
[20] = AUC in Sprague-Dawley rat at 10 mg/kg, po; format: ADME, organism-based; parameters: dose 10 mg/kg, route oral; conditions: plasma
[21] = Volume of distribution at steady state in Sprague-Dawley rat at 3 mg/kg, iv; format: ADME, organism-based; parameters: dose 3 mg/kg, route intravenous; conditions: in vivo, read-out: Vdss

T1 sequence (P42338 whole entry, canonical isoform): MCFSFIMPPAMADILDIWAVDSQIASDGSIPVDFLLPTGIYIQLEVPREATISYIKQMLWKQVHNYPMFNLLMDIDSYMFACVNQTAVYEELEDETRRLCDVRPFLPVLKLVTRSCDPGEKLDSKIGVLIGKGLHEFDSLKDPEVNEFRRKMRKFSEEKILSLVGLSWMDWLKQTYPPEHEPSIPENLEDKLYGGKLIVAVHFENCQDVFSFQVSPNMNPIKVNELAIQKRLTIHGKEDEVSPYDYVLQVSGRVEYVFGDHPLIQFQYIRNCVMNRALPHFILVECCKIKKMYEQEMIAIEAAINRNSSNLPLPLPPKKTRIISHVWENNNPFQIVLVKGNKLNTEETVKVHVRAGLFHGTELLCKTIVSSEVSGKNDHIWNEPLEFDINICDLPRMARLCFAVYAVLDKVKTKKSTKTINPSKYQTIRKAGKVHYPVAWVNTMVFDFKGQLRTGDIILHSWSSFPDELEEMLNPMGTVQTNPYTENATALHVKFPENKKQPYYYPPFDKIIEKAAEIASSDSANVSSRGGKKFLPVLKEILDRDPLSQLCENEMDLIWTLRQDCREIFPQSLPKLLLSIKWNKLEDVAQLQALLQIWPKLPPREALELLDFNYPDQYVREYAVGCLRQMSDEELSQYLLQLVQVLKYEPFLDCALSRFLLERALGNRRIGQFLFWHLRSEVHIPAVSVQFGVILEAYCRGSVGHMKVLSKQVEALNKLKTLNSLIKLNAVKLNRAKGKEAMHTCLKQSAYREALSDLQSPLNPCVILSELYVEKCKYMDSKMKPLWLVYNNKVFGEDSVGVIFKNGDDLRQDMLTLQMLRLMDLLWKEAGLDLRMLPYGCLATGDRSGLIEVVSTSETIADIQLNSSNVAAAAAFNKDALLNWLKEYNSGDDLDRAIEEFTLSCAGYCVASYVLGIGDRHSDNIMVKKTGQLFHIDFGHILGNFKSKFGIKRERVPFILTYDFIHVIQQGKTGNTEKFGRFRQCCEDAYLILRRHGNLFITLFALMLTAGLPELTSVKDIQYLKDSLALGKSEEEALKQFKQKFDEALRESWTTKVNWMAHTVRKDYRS

CC1Cc2c(Br)cccc2N1C(=O)Cc1nc(N2CCOCC2)sc1C(=O)O (single isomer, unassigned; enantiomer 1)
IC50 [1]: 10 nM | IC50 [2]: 63 nM | IC50 [3]: 4350 nM | concentration at 7 h [4]: 79 µM | half-life [5]: 3.8 h | Papp [6]: 0.5 ×10⁻⁶ cm/s | concentration at 16 h [7]: 3 µM | clearance [8]: 4.17 mL/min/kg | metabolised [9]: 7% | half-life [10]: 6.3 h | bioavailability [11]: 99% | concentration at 1 h [12]: 181 µM | IC50 [13]: 140 nM | Drug metabolism [14]: 17% | IC50 [15]: 395 nM | Therm_solubility [16]: 3.795 mM | Tmax [17]: 0.25 h | fraction unbound [18]: 0.015 | Cmax [19]: 15100 ng/mL | AUC [20]: 41000 ng·h/mL | Vd [21]: 0.65 L/kg
